Measured values from patent publication US6461997B1, “Triazole sulfones having herbicidal activity” (Monsanto Technology LLC, priority 1999, dated 2002).

Legend:
[1] = tested on: LAMPU (purple deadnettle); test: Pre-emergence herbicidal activity, cool season; type: in vivo, Lamium purpureum; details: lowest tested rate with 80% or greater inhibition; rates 300, 100, 30, 10 g/ha; about 14 days
Method: (§1) Tables 5 to 8 summarize results of tests conducted as described below to determine the pre-emergence herbicidal activity, in the form of a GR80 value, of illustrative compounds of this invention. […] Compounds of the invention were typically applied at rates of 300, 100, 30, and 10 g/ha. Where herbicidal activity was evident but 80% inhibition was not achieved at the highest rate tested, an asterisk (*) is shown in the following tables.
(§2) The pre-emergence tests were conducted by the following procedure. Topsoil was sieved to pass through a 1.27 cm screen. Fertilizer was added to the topsoil and the mixture was then sterilized by heating. The topsoil mixture was placed in a pot and compacted to a depth of 1.0 to 1.25 cm from the top of the pot. Seeds of each of several monocotyledonous and dicotyledonous annual plant species were placed on top of the soil. Additional soil was subsequently placed over the seeds to level-fill the pot. A known amount of each test compound dissolved or suspended in an appropriate organic solvent was diluted with a 50:50 mix of acetone and water and applied to the surface of the soil. After treatment the plants were placed in a greenhouse where they received 0.64 cm of overhead irrigation. All subsequent watering consisted of a light overhead mist and/or subirrigation as needed for germination and growth. Tables 5 and 6 below relate to warm season plant species which were placed after pre-emergence treatment in a greenhouse with a 30/21° C. day/night temperature regime. Tables 7 and 8 below relates to cool season plant species placed after pre-emergence treatment in a greenhouse or growth chamber with an 18/13° C. day/night temperature regime.
(§3) Approximately 14 days after planting and treating, the plants were observed and herbicidal efficacy recorded as percent inhibition by comparison with untreated plants.
(§4) The plant species usually regarded as weeds which were utilized in the tests are identified in the tables below according to the following legend, in which “d” indicates a dicotyledonous species and “m” a monocotyledonous species. All monocotyledonous species included in the tests herein are grasses.

[2] = tested on: VERPE (creeping speedwell); test: Pre-emergence herbicidal activity, cool season; type: in vivo, Veronica persicaria; details: lowest tested rate with 80% or greater inhibition; rates 300, 100, 30, 10 g/ha; about 14 days
Method: as §1, §2, §3, §4

STEME (common chickweed) = test: Pre-emergence herbicidal activity, cool season; type: in vivo, Stellaria media; details: lowest tested rate with 80% or greater inhibition; rates 300, 100, 30, 10 g/ha; about 14 days
Method: as §1, §2, §3, §4

SINAR (wild mustard) = test: Pre-emergence herbicidal activity, cool season; type: in vivo, Sinapis arvensis; details: lowest tested rate with 80% or greater inhibition; rates 300, 100, 30, 10 g/ha; about 14 days
Method: as §1, §2, §3, §4

POROL (common purslane) = test: Pre-emergence herbicidal activity, warm season; type: in vivo, Portulaca oleracea; details: GR80 = lowest tested rate (300, 100, 30, 10 g/ha) with 80% or greater inhibition; approx. 14 days after treating; 30/21° C.
Method: as §1, §2, §3, §4

[3] = tested on: PANMI (wild proso millet); test: Pre-emergence herbicidal activity, warm season; type: in vivo, Panicum miliaceum; details: GR80 = lowest tested rate (300, 100, 30, 10 g/ha) with 80% or greater inhibition; approx. 14 days after treating; 30/21° C.
Method: as §1, §2, §3, §4

ECHCG (barnyardgrass) = test: Pre-emergence herbicidal activity, warm season; type: in vivo, Echinochloa crus-galli; details: GR80 = lowest tested rate (300, 100, 30, 10 g/ha) with 80% or greater inhibition; approx. 14 days after treating; 30/21° C.
Method: as §1, §2, §3, §4

[4] = tested on: GALAP (catchweed bedstraw); test: Pre-emergence herbicidal activity, cool season; type: in vivo, Galium aparine; details: lowest tested rate with 80% or greater inhibition; rates 300, 100, 30, 10 g/ha; about 14 days
Method: as §1, §2, §3, §4

POLCO (wild buckwheat) = test: Pre-emergence herbicidal activity, cool season; type: in vivo, Polygonum convolvulus; details: lowest tested rate with 80% or greater inhibition; rates 300, 100, 30, 10 g/ha; about 14 days
Method: as §1, §2, §3, §4

[5] = tested on: SORHA (johnsongrass (seedling)); test: Pre-emergence herbicidal activity, warm season; type: in vivo, Sorghum halepense; details: GR80 = lowest tested rate (300, 100, 30, 10 g/ha) with 80% or greater inhibition; approx. 14 days after treating; 30/21° C.
Method: as §1, §2, §3, §4

[6] = tested on: AGSST (creeping bentgrass); test: Pre-emergence herbicidal activity, cool season; type: in vivo, Agrostis stolonifera; details: GR80 = lowest tested rate (300, 100, 30, 10 g/ha) with 80% or greater inhibition; approx. 14 days after treating; 18/13° C.
Method: as §1, §2, §3, §4

SASKR (russian thistle) = test: Pre-emergence herbicidal activity, cool season; type: in vivo, Salsola kali; details: lowest tested rate with 80% or greater inhibition; rates 300, 100, 30, 10 g/ha; about 14 days
Method: as §1, §2, §3, §4

DIGSA (large crabgrass) = test: Pre-emergence herbicidal activity, warm season; type: in vivo, Digitaria sanguinalis; details: GR80 = lowest tested rate (300, 100, 30, 10 g/ha) with 80% or greater inhibition; approx. 14 days after treating; 30/21° C.
Method: as §1, §2, §3, §4

[7] = tested on: CIRAR (canada thistle (seedling)); test: Pre-emergence herbicidal activity, warm season; type: in vivo, Cirsium arvense; details: GR80 = lowest tested rate (300, 100, 30, 10 g/ha) with 80% or greater inhibition; approx. 14 days after treating; 30/21° C.
Method: as §1, §2, §3, §4

SETFA (giant foxtail) = test: Pre-emergence herbicidal activity, warm season; type: in vivo, Setaria faberi; details: GR80 = lowest tested rate (300, 100, 30, 10 g/ha) with 80% or greater inhibition; approx. 14 days after treating; 30/21° C.
Method: as §1, §2, §3, §4

AMARE (redroot pigweed) = test: Pre-emergence herbicidal activity, warm season; type: in vivo, Amaranthus retroflexus; details: GR80 = lowest tested rate (300, 100, 30, 10 g/ha) with 80% or greater inhibition; approx. 14 days after treating; 30/21° C.
Method: as §1, §2, §3, §4

[8] = tested on: CHEAL (common lambsquarters); test: Pre-emergence herbicidal activity, warm season; type: in vivo, Chenopodium album; details: GR80 = lowest tested rate (300, 100, 30, 10 g/ha) with 80% or greater inhibition; approx. 14 days after treating; 30/21° C.
Method: as §1, §2, §3, §4

SOLNI (black nightshade) = test: Pre-emergence herbicidal activity, warm season; type: in vivo, Solanum nigrum; details: GR80 = lowest tested rate (300, 100, 30, 10 g/ha) with 80% or greater inhibition; approx. 14 days after treating; 30/21° C.
Method: as §1, §2, §3, §4

SETVI (green foxtail) = test: Pre-emergence herbicidal activity, cool season; type: in vivo, Setaria viridis; details: GR80 = lowest tested rate (300, 100, 30, 10 g/ha) with 80% or greater inhibition; approx. 14 days after treating; 18/13° C.
Method: as §1, §2, §3, §4

ALOMY (blackgrass) = test: Pre-emergence herbicidal activity, cool season; type: in vivo, Alopecurus myosuroides; details: GR80 = lowest tested rate (300, 100, 30, 10 g/ha) with 80% or greater inhibition; approx. 14 days after treating; 18/13° C.
Method: as §1, §2, §3, §4

[9] = tested on: BRAPP (broadleaf signalgrass); test: Pre-emergence herbicidal activity, warm season; type: in vivo, Brachiaria platyphylla; details: GR80 = lowest tested rate (300, 100, 30, 10 g/ha) with 80% or greater inhibition; approx. 14 days after treating; 30/21° C.
Method: as §1, §2, §3, §4

Compound | Pre-emergence activity GR80, LAMPU [1] | Pre-emergence activity GR80, VERPE [2] | Pre-emergence activity GR80, STEME (STEME (common chickweed)) | Pre-emergence activity GR80, SINAR (SINAR (wild mustard)) | Pre-emergence activity (GR80) POROL (POROL (common purslane)) | Pre-emergence activity (GR80) PANMI [3] | Pre-emergence activity (GR80) ECHCG (ECHCG (barnyardgrass)) | Pre-emergence activity GR80, GALAP [4] | Pre-emergence activity GR80, POLCO (POLCO (wild buckwheat)) | Pre-emergence activity (GR80) SORHA [5] | Pre-emergence activity (GR80) AGSST [6] | Pre-emergence activity GR80, SASKR (SASKR (russian thistle)) | Pre-emergence activity (GR80) DIGSA (DIGSA (large crabgrass)) | Pre-emergence activity (GR80) SETFA (SETFA (giant foxtail)) | Pre-emergence activity (GR80) CHEAL [8] | Pre-emergence activity (GR80) SETVI (SETVI (green foxtail)) | Pre-emergence activity (GR80) ALOMY (ALOMY (blackgrass)) | Pre-emergence activity (GR80) BRAPP [9] | other results
CN(C)C(=O)n1cnc(S(=O)(=O)C(F)(F)Br)n1 [Example 37] | 300 g/ha | [empty] | 300 g/ha | [empty] | 300 g/ha | 300 g/ha | 300 g/ha | [empty] | [empty] | 300 g/ha | 100 g/ha | [empty] | 300 g/ha | – | – | – | – | – | –
O=C(N1CCCC1)n1cnc(S(=O)(=O)C(F)(F)C(F)F)n1 [Example 59] | 100 g/ha | [empty] | 300 g/ha | [empty] | – | 100 g/ha | 300 g/ha | 100 g/ha | 300 g/ha | 100 g/ha | 300 g/ha | [empty] | 30 g/ha | 300 g/ha | 100 g/ha | 300 g/ha | 300 g/ha | 100 g/ha | Pre-emergence activity (GR80) CIRAR [7]: 300 g/ha; Pre-emergence activity (GR80) AMARE (AMARE (redroot pigweed)): 100 g/ha; Pre-emergence activity (GR80) SOLNI (SOLNI (black nightshade)): 300 g/ha
COCCN(C)C(=O)n1cnc(S(=O)(=O)C(F)(F)C(F)F)n1 [Example 64] | 300 g/ha | 30 g/ha | 100 g/ha | 100 g/ha | 300 g/ha | 100 g/ha | – | 300 g/ha | 100 g/ha | – | 100 g/ha | 10 g/ha | 300 g/ha | 300 g/ha | – | 100 g/ha | 300 g/ha | 300 g/ha | –
C=CCN(C)C(=O)n1cnc(S(=O)(=O)C(F)(F)C(F)F)n1 [Example 65] | 100 g/ha | 100 g/ha | 300 g/ha | 300 g/ha | – | 300 g/ha | – | 30 g/ha | 100 g/ha | – | 300 g/ha | [empty] | – | – | 300 g/ha | 100 g/ha | 100 g/ha | – | –
CN(C(=O)n1cnc(S(=O)(=O)C(F)(F)C(F)F)n1)C1CCCCC1 [Example 67] | [empty] | 100 g/ha | [empty] | [empty] | 300 g/ha | 100 g/ha | 300 g/ha | 300 g/ha | 300 g/ha | 300 g/ha | 100 g/ha | [empty] | – | 300 g/ha | 100 g/ha | 300 g/ha | – | – | Pre-emergence activity (GR80) AMARE (AMARE (redroot pigweed)): 300 g/ha
CCN(CC)C(=S)n1cnc(S(=O)(=O)C(F)(F)C(F)(F)Br)n1 [Example 82] | 300 g/ha | 300 g/ha | 300 g/ha | 300 g/ha | 30 g/ha | 300 g/ha | – | [empty] | 300 g/ha | 300 g/ha | 300 g/ha | [empty] | – | 300 g/ha | 300 g/ha | 100 g/ha | – | 300 g/ha | –
C=CCN(C)C(=O)n1cnc(S(=O)(=O)C(F)(F)Cl)n1 [Example 89] | 100 g/ha | [empty] | 100 g/ha | 300 g/ha | 100 g/ha | 300 g/ha | – | 300 g/ha | 100 g/ha | – | 100 g/ha | 300 g/ha | 100 g/ha | – | – | 100 g/ha | – | – | –
